Data on three molecules can be found in paper PMC8370991, “Structural basis for the inhibition of HTLV-1 integration inferred from cryo-EM deltaretroviral intasome structures” (Nature Communications, 2021).

The subject of test [1] is HTLV-1. Kind of test: MT-2-Jurkat cell-to-cell HTLV-1 infection, proviral load by qPCR. The format is cell-based. The conditions noted are these: HTLV-1 infection of Jurkat T cells. How it is done:
Six of the most promising compounds were selected for assessment of their efficacy in inhibiting HTLV-1 viral infection. To this end, we employed an MT-2-Jurkat co-culture relying on cell-to-cell-based HTLV-1 transmission, which we successfully used in a previous study. In this assay format, the infection of Jurkat cells is measured via real-time quantitative PCR (qPCR) determination of the proviral load (PVL). […] A block in the integration reaction was confirmed by Alu-qPCR experiments (Supplementary Fig. 6). […] We suspect this is owing to a more efficient uptake of BIC than RAL by Jurkat T cells.
MT-2 and E6.1 Jurkat T-cell lines (ATCC) were used for the experiments. The cells were cultured at 37 °C with 5% CO2 and maintained in Roswell Park Memorial Institute (RPMI) media supplemented with 10% fetal bovine serum (FBS), 100 U penicillin, 100 μg/mL streptomycin and 0.25 μg/mL fungizone.
The HTLV-1 cell-to-cell infection was performed as previously described; Jurkat T cells were counted and diluted in complete RPMI to a final concentration of 0.25 × 10^6 cells/ml and pre-treated with INSTI drugs (final concentration ranging from 0.2 pM to 2 μM) or DMSO as a control for 24 h. MT-2 cells were resuspended in RPMI at a concentration of 2 × 10^6 cells/ml and subjected to a nonlethal γ-radiation dose of 400 Gy. Cells were resuspended at a concentration of 2 × 10^6 cells/ml in serum-free RPMI supplemented with the corresponding INSTI drug. Co-culture of 0.5 × 10^6 for each cell line was carried out for 16 h, after which cells were washed in PBS and resuspended in 1 ml of depletion buffer (PBS, 0.1% FBS and 2 mM EGTA). MT-2 cells were depleted from the culture by means of anti-CD25 magnetic beads (DynabeadsTM CD25, Thermo Fisher). Depletion efficiency was confirmed via flow cytometry as described previously. Jurkat cells were cultured for 2 weeks in complete RPMI supplemented with the drugs and genomic DNA was extracted (DNeasy kit, Qiagen) and stored at −20 °C for subsequent analysis. All the experiments were done in triplicate.
The PVL was measured as previously described[9],[53],[54]. Jurkat genomic DNA was quantified and diluted to a concentration of 5 ng/μL. Real-time qPCR analysis were conducted on 20 ng of gDNA to measure the level of HTLV-1 tax and gapdh genes (Supplementary Table 5). For the standard curve, the gDNA from an HTLV-1 naturally infected T-cell clone (clone 11.50, courtesy of professor Charles Bangham), which has one copy of tax and two of gapdh, was used. The integrated provirus copy number was calculated as follows: (tax copy numbers)/(2×gapdh copy number)[53], and normalised to the DMSO-treated control which was set to 100%. The PVL data were fitted to a dose–response curve in Prism 7 and the EC50 was calculated. Alu-PCR was performed as previously described in ref. [55]. In brief, the first PCR reaction was done with Phusion polymerase starting from 80 ng of gDNA using the ALU-specific primers (Alu-F/Gag-R). The nested PCR was run diluting the amplificated product 1:50. The reaction was done as a qPCR using Gag-specific primers (Gag-R/Gag-F) and the Luna SYBR dye reaction mix (New England Biolabs). The integrated provirus copy numbers were normalised to GAPDH and Jurkat cells treated with DMSO and infected with HTLV-1 were set to 100%. Experiments were done in triplicate.

The next test deals with STLV-1 intasome. Description: EMSA of stability (retention) of assembled STLV-1 intasome. The settings on record: three hours of incubation with the drug. How it is done:
The donor DNA (vDNA) that mimics the 3′-processed LTR of STLV-1 DNA was preassembled by annealing Atto-680-labelled MarB43_U5_S30UP and MarB43_U5_S30B oligonucleotides (Supplementary Table 4) in 100 mM Tris pH 7.4, 400 mM NaCl. In all, 16 μg of STLV-1 IN or its mutants were co-incubated with 38.4 μg of LEDGF/ΔIBD-B56γ at 4 °C for 30 min to allow binding. Samples were then supplemented with 0.5 μL 20 μM Atto680-labelled vDNA, and sufficiently diluted to give a final NaCl concentration of 60 mM. This was immediately placed in a 37 °C heating block for 10 min. The sample was then returned to room temperature (RT) and any precipitate was resolubilised by the addition of NaCl to a final concentration of 1.2 M. After equilibration of the samples at RT for 10 min, the samples were either immediately supplemented with 10 μg/mL heparin or, where stated, were incubated further or additional reagents/INSTIs were added, as described. Samples, supplemented with 10 μg/mL heparin, devoid of loading dye were carefully loaded onto a 3% low melting point agarose gel containing 10 μg/mL heparin and electrophoresed, avoiding overheating. Densitometry analysis was carried out in ImageJ v1.50i. Measurements from at least three independent experiments were taken. Standard deviations and p values were calculated in Prism 9.
Supplementary Figure 10 | STLV-1 IN A219E binds more B56g and stabilises the deltaretroviral intasome. a, Pulldown of LEDGF/ΔIBD-B56γ by wild type His6-STLV-1 IN and its mutants. Mutations introduced in the IN:B56 binding interface can strengthen the interaction. b, A219E-mutated STLV-1 IN increases the amount of intasome assembled in vitro in an EMSA assay, compared to wild type IN. Values are normalised to wild type STLV-1 IN. c, EMSA study of the effect of addition of BIC on the stability (retention) of the assembled STLV-1 intasome after three hours of incubation with the drug. Values shown represent percentage of intasome retained as compared to intasome assayed by EMSA straight after assembly. Averages and standard deviations are shown for two independent biological replicates. Primary data from pull-down assays and EMSA is also included below each panel. The red arrow indicates the intasome band. INSTI, integrase strand transfer inhibitor. Source data are provided as a Source Data File.
(1 picture or pasted object on this page, not shown here)
(In EMSA bound probe runs differently from free probe, usually more slowly.)

Another test has as its target T1, recombinant HTLV-1 IN (Human T-cell leukemia virus 1, UniProt P03362).
T1 construct: made in house
The conditions noted are these: previously obtained values, read-out: HTLV-1 IN strand transfer IC50, cited from earlier work.

In test [2] the test system is HTLV-1. The settings on record: cited from earlier work.
Another test deals with HIV-1. The settings on record: HIV-1 infection model; supplementary ref 18; read-out: HIV-1 EC50 ± stdev; cited from earlier work.
Test [3] deals with 6xHis-tagged STLV-1 MarB43 integrase A219E (simian T-cell lymphotropic virus type 1 (STLV-1), isolate MarB43). Description: pull-down.
Test [4] concerns the target STLV-1 IN(A219E) as assembled into the intasome for cryo-EM (simian T-cell lymphotropic virus type 1 (STLV-1), isolate MarB43). Kind of test: cryo-EM structure.

Read-outs that look alike come from different tables or passages of the source.

In general, IC50 refers to the concentration at which inhibition is half-maximal. As usually defined, the EC50 is the concentration needed to bring the measured effect to its halfway point. As for `O=C(NCc1c(F)cc(F)cc1F)c1cn2c(c(O)c1=O)C(=O)N1[C@H]3CC[C@H](C3)O[C@@H]1C2` [Bictegravir], in the test on HTLV-1 [1], the “improvement in EC50 compared with RAL” value was found to be 20 fold. The “percentage of intasome retained” value in the test with STLV-1 intasome (1 uM, Replicate 1) is on record as 54.7791%; with STLV-1 intasome (1 uM, Replicate 2), 56.5068%; with STLV-1 intasome (50 uM, Replicate 1), 73.5691%; in the test on STLV-1 intasome (50 uM, Replicate 2) it was 117.429%; in the test on STLV-1 intasome (50 uM, Replicate 3), 83.837%. Moreover, the results for the IC50 at recombinant HTLV-1 IN (Replicate 1), at recombinant HTLV-1 IN (Replicate 2) and at recombinant HTLV-1 IN (Replicate 3) were 163 nM, 136 nM and 212 nM, respectively. Moreover, the EC50 is 0.3 ± 0.173 nM with HTLV-1 [2] (MT-2-Jurkat cell-to-cell infection, read-out: HTLV-1 EC50); 0.54 nM in the test with HTLV-1 [2] (Replicate 1, previously reported values, read-out: HTLV-1 infection EC50); 0.44 nM with HTLV-1 [2] (Replicate 2, previously reported values, read-out: HTLV-1 infection EC50); 1.6 ± 0.4 nM in the test with HIV-1.
Turning to “LEDGF/ΔIBD-B56γ (from UniProt Q13362 11-380)”, the fold B56γ recovered against WT IN in test [3] amounted to 2 fold.
In general, stoichiometry N refers to a count of units in the complex or per binding partner. Turning to “STLV-1 IN(A219E) as assembled into the intasome for cryo-EM (enzyme)”, in test [4], the stoichiometry N was determined as 4.
